Here are results for two substances from US20120277161A1, “INHIBITION OF MULTIPLE CELL ACTIVATION PATHWAYS” (INTER-K PTY LIMITED, priority 2009, published 2012).

The subject of test [1] is HT29 human colon cancer cells. The test can be described thus: Cell proliferation (MTT) assay, HT29 cells. It is filed as cell-based. On the procedure:
(§1) 6.1 Cell Proliferation (MTT) Assay Single cell suspensions of viable trypsinised cells were seeded into 96-well tissue culture plates at a density of 2×10^3 cells per well in a volume of 100 μl of a suitable culture media supplemented with heat inactivated foetal calf serum (FCS) (e.g., Dulbecco's Modified Eagles Medium (DMEM), with 10% v/v FCS, 1% L-glutamine, 2% (v/v) Hepes, and antibiotics). A set of triplicate wells was prepared for each concentration of the peptide dendrimer being tested. Additional sample wells containing untreated cells or media alone were set up in each treatment plate and processed in parallel as reference controls. A zero-time plate of untreated cells and media-alone wells was simultaneously prepared and an MTT assay carried out on this plate at the time of addition of the kinase inhibitor (i.e., polypeptide or dendrimer) to treatment plates. All plates were cultured for 24 hours before addition of the test dendrimer.
(§2) To prepare the MTT solution 100 mg of MTT (3-(4,5-dimethylthiazolyl-2)-2,5-diphenyltetrazolium bromide) (Cat #. M-128, Sigma, St Louis Mo.), is mixed with 20 ml of PBS at pH 7.4. The resulting solution is filter sterilized (0.2 μM syringe filter) and stored at 4° C. protected from light until use. MTT substrate is cleaved in growing cells to yield a water insoluble salt. After solubilisation of the salt crystals, a coloured product is produced the measurement of which allows quantitation of the proliferative activity of the cultured cells.
(§3) Appropriate concentrations of the kinase inhibitor were prepared by dilution of freshly prepared sterile 1 mM stock solutions into cell culture media to give a final well volume of 200 μl containing 10% v/v FCS. The zero-plate was processed by addition of MTT at this time. Cell culture was continued for a further 24 or 48 hours before addition of 20 μl of MTT in PBS (5 mg/ml, 0.2 um filter sterilised). The MTT cell proliferation assay measures cell proliferation rate and, in instances where cell viability is compromised, the assay indicates a comparative reduction in cell viability. After a 3 hour incubation in the presence of MTT (5% CO2 in air at 37° C.), plates were centrifuged at 450 g for 5 minutes, supernatant was removed by gentle suction and precipitated tetrazolium salt resuspended into 150 μl DMSO:glycine (0.1M glycine, 0.1M NaCl pH 10.5) (6:1 v/v) solution. Plates were gently vortexed to complete solubilisation of crystalline material and absorbance was read at 550 nm using a microplate reader. Sample data were processed to determine the comparative growth of treated samples relative to untreated controls.
HT29 cells were cultured for 48 hours in the presence of selected dendrimers and proliferation of the cells was assessed by MTT assay essentially as described in Example 6.1. The results were calculated as percentage proliferation of control cells (not treated with dendrimer).

Test [2] has as its system ADDP human ovarian carcinoma cell line. The test can be described thus: Cell proliferation (MTT) assay, ADDP cells. It is filed as cell-based. How it is done: as §1, §2, §3

In the case of AAVALLPAVLLALLARSKAKNPLYR [IK2], in test [1] (30 μM IK2 peptide, FIG. 9), the “effect in combination with cisplatin versus calculated additive effect, HT29 cells” value was “synergistic effect”. Besides, the “observed inhibition in combination with oxaliplatin versus calculated additive effect, ADDP cells” value in test [2] (5 μM or 10 μM IK2 peptide, FIGS. 7A, 7B) is “synergistic outcome”. In test [2] (30 μM IK2 peptide, FIG. 8), the “effect in combination with cisplatin versus calculated additive effect, ADDP cells” value is “synergistic effect”. In addition, the “inhibition of the growth of ADDP cancer cells in combination with cisplatin” value in test [2] (compared to cisplatin or IK2 alone, FIG. 6) was “high level inhibition of the growth”. In addition, the “inhibition of the growth of ADDP cancer cells in combination with oxaliplatin” value in test [2] (compared to oxaliplatin or IK2 alone) is recorded as “high level inhibition of the growth”.

In general, IC50 refers to the concentration at which inhibition is half-maximal. Read a low IC50 as inhibition by little substance. With “dendrimer presenting 12 monomer units of the peptide RSKAKNPLYR [Dend 12-10(4)]”, in test [1] (MTT, 48 hours), 1000 nM corresponded to half-maximal inhibition (IC50); the “dendrimer concentration required for total kill, HT29 cells” value turned out to be 10 µM; the “inhibition of proliferation of HT29 cells” value was “more effective than Dend 9-10(4)”.
